Measured values from patent US12606541B2, “PPARg modulators and methods of use” (Eisai R&D Management Co., Ltd., priority 2020, dated 2026).
Where two headings read alike, the source gives them in different places.

Tests used:
[1] = system: UM-UC-9 engineered cells; assay: Cell proliferation / short-term viability assay, CellTiter-Glo 144 h; format: cell-based, human; details: read-out: CTGlo 144 h UMUC9.5, G150
Summary of the method: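 Viability read by CellTiter-Glo 2.0 luminescence at day 7 versus DMSO-vehicle wells and a T0 plate measured on day 0. Cells: UM-UC-9 engineered assay-ready stocks, 500 cells/well in high-glucose DMEM with 10% FBS, 37° C, 5% CO2.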

[2] = biological target: T1, His6-TEV-PPARγ-(234-505) (Homo sapiens, UniProt P37231); assay: TR-FRET Assay to Measure Co-R Peptide Recruitment to PPARγ; format: biochemical; details: Co-R peptide (SMRT-ID2) recruitment, top final concentration 20 μM, read-out: TR-FRET i-Ag, AC50
T1 construct: The His6-TEV-PPARγ-(234-505) protein for assay was expressed and purified; TEV cleavage site (N); made in house
T1 sequence (P37231 234-505): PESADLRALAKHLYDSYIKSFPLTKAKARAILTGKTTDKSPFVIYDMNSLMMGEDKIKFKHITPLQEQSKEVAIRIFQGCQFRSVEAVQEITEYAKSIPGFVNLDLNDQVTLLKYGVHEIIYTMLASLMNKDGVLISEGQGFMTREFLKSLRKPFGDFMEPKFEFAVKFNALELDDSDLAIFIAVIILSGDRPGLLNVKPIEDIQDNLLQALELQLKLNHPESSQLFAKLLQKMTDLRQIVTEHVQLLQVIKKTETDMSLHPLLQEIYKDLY
Summary of the method: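 Corepressor recruitment is measured by adding terbium-labeled anti-His antibody and FITC SMRT-ID2 peptide, at 5 and 200 nM final, after a 20-minute room-temperature protein–compound incubation. After one further hour, signal is converted to percent response between DMSO and 500 nM T0070907 wells.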

| AC50 [2] [nM] | Compound | IC50 ([1]; Homo sapiens, UM-UC-9, 144 h) [nM] | IC50 [1] [nM] | IC50 ([1]; listed as 114a) [nM] | AC50 ([2]; listed as 114a) [nM] |
| --- | --- | --- | --- | --- | --- |
| 880 | COc1cc(-c2cc(C(=O)N3CCC(C(=O)NCc4ncc5c(n4)CCC5)CC3)n[nH]2)c(Cl)cn1 [Example 241, 1-(5-(5-chloro-2-methoxypyridin-4-yl)-1H-pyrazole-3-carbonyl)-N-((6,7-dihydro-5H-cyclopenta[d]pyrimidin-2-yl)methyl)piperidine-4-carboxamide] | 3480 |  |  |  |
| 202 | COc1cc(-c2cc(C(=O)N3CCC(C(=O)NC4CCN(C)c5ccccc54)CC3)n[nH]2)c(Cl)cn1 (racemic) [Example 186, 1-(5-(5-chloro-2-methoxypyridin-4-yl)-1H-pyrazole-3-carbonyl)-N-(1-methyl-1,2,3,4-tetrahydroquinolin-4-yl)piperidine-4-carboxamide] | 339 |  |  |  |
| 4.1 | COc1cc(-c2cc(C(=O)N3CC[C@H](C(=O)NCc4nccnc4C(F)(F)F)CC34CC4)n[nH]2)c(F)cn1 [Example 432, (S)-4-(5-(5-fluoro-2-methoxypyridin-4-yl)-1H-pyrazole-3-carbonyl)-N-((3-(trifluoromethyl)pyrazin-2-yl)methyl)-4-azaspiro[2.5]octane-7-carboxamide] | 9.1 |  |  |  |
| 210 | COc1cc(-c2cc(C(=O)N3CCC(O)(C(=O)NCc4cccc(Cl)c4)CC3)n[nH]2)c(Cl)cn1 [Example 171, 1-(5-(5-chloro-2-methoxypyridin-4-yl)-1H-pyrazole-3-carbonyl)-N-(3-chlorobenzyl)-4-hydroxypiperidine-4-carboxamide] | 1550 |  |  |  |
| 7.7 | COc1cc(-c2cc(C(=O)N3CC[C@H](C(=O)N[C@H]4CC[C@@](OC[C@H](C)N)(C(F)(F)F)CC4)CC34CC4)n[nH]2)c(F)cn1 [Example 352, (S)—N-((1548)-4-((S)-2-aminopropoxy)-4-(trifluoromethyl)cyclohexyl)-4-(5-(5-fluoro-2-methoxypyridin-4-yl)-1H-pyrazole-3-carbonyl)-4-azaspiro[2.5]octane-7-carboxamide] | 134 |  |  |  |
| 7 | COc1cc(-c2cc(C(=O)N3CC[C@H](C(=O)NCc4ccncc4C(F)(F)F)CC34CC4)[nH]n2)c(F)cn1 [Example 525, (S)-4-(3-(5-fluoro-2-methoxypyridin-4-yl)-1H-pyrazole-5-carbonyl)-N-((3-(trifluoromethyl)pyridin-4-yl)methyl)-4-azaspiro[2.5]octane-7-carboxamide] | 19 |  |  |  |
| 10 | COc1cc(-c2cc(C(=O)N3CC[C@H](C(=O)NCC45CC(C(F)(F)F)(CO4)C5)CC34CC4)n[nH]2)c(F)cn1 [Example 365, (S)-4-(5-(5-fluoro-2-methoxypyridin-4-yl)-1H-pyrazole-3-carbonyl)-N-((4-(trifluoromethyl)-2-oxabicyclo[2.1.1]hexan-1-yl)methyl)-4-azaspiro[2.5]octane-7-carboxamide] | 21.9 |  |  |  |
| 19.5 | COc1cc(-c2cc(C(=O)N3CC[C@H](C(=O)NCc4ncc(C#N)cc4Cl)CC34CC4)n[nH]2)c(F)cn1 [Example 391, (S)—N-((3-chloro-5-cyanopyridin-2-yl)methyl)-4-(5-(5-fluoro-2-methoxypyridin-4-yl)-1H-pyrazole-3-carbonyl)-4-azaspiro[2.5]octane-7-carboxamide] | 81.3 |  |  |  |
| 25.8 | COc1cc(-c2cc(C(=O)N3CCC(C(=O)NCc4c(F)ccc5[nH]cnc45)CC3)n[nH]2)c(Cl)cn1 [Example 243, 1-(5-(5-chloro-2-methoxypyridin-4-yl)-1H-pyrazole-3-carbonyl)-N-((5-fluoro-1H-benzo[d]imidazol-4-yl)methyl)piperidine-4-carboxamide] | 414 |  |  |  |
|  | COc1cc(-c2cc(C(=O)N3CCC(C(=O)NC4CCC(C)CC4)CC3)n[nH]2)c(F)cn1 (single isomer, unassigned) [Example 114-A] |  |  | 4430 | 3470 |
| 635 | CCO[C@]1(C(F)(F)F)CC[C@@H](NC(=O)[C@@H]2CCN(C(=O)c3cc(-c4cc(C)ncn4)[nH]n3)C3(CC3)C2)CC1 (single isomer, unassigned) [Example 308-E] | 2560 |  |  |  |
| 6.1 | COc1cc(-c2cc(C(=O)N3CCC(C(=O)NCC4CCc5[nH]ncc5C4)CC34CC4)n[nH]2)c(F)cn1 (single isomer, unassigned) [Example 341-A] |  | 6.6 |  |  |
| 5.3 | COc1cc(-c2cc(C(=O)N3CC[C@H](C(=O)N[C@H]4CC[C@@](OCCN)(C(F)(F)F)CC4)CC34CC4)n[nH]2)c(F)cn1 [Example 350, (S)—N-((1r,4S)-4-(2-aminoethoxy)-4-(trifluoromethyl)cyclohexyl)-4-(5-(5-fluoro-2-methoxypyridin-4-yl)-1H-pyrazole-3-carbonyl)-4-azaspiro[2.5]octane-7-carboxamide] | 176 |  |  |  |
| 2 | CCO[C@]1(C(F)(F)F)CC[C@@H](NC(=O)[C@H]2CCN(C(=O)c3cc(-c4cc(C)ncn4)[nH]n3)C3(CC3)C2)CC1 (single isomer, unassigned) [Example 308-C] | 5.9 |  |  |  |
| 10.8 | COc1cnc(CNC(=O)[C@H]2CCN(C(=O)c3cc(-c4cc(OC)ncc4F)[nH]n3)C3(CC3)C2)c(Cl)c1 [Example 402, (S)—N((3-chloro-5-methoxypyridin-2-yl)methyl)-4-(5-(5-fluoro-2-methoxypyridin-4-yl)-1H-pyrazole-3-carbonyl)-4-azaspiro[2.5]octane-7-carboxamide] | 2.9 |  |  |  |
| 2.5 | CCO[C@]1(C(F)(F)F)CC[C@@H](NC(=O)[C@H]2CCN(C(=O)c3cc(-c4cc(OC)ncc4F)[nH]n3)C3(CC3)C2)CC1 (single isomer, unassigned) [Example 312-B] | 1.8 |  |  |  |

| Compound | AC50 [2] [nM] | IC50 ([1]; Homo sapiens, UM-UC-9, 144 h) [nM] | IC50 [1] [nM] | IC50 ([1]; listed as 114a) [nM] | AC50 ([2]; listed as 114a) [nM] |
| --- | --- | --- | --- | --- | --- |
| COc1cc(-c2cc(C(=O)N3CCC(C(=O)NC4CCC(C)CC4)CC3)n[nH]2)c(F)cn1 (mixture of isomers) [Example 114, 1-(5-(5-fluoro-2-methoxypyridin-4-yl)-1H-pyrazole-3-carbonyl)-N-((1s,4s)-4-methylcyclohexyl)piperidine-4-carboxamide and 1-(5-(5-fluoro-2-methoxypyridin-4-yl)-1H-pyrazole-3-carbonyl)-N-((1r,4r)-4-methylcyclohexyl)piperidine-4-carboxamide] | 78.5 |  | 120 |  |  |
| (S)-4-(5-(5-fluoro-2-methoxypyridin-4-yl)-1H-pyrazole-3-carbonyl)-N—(((S)-3-(trifluoromethyl)-5,6-dihydro-8H-[1,2,4]triazolo[3,4-c][1,4]oxazin-6-yl)methyl)-4-azaspiro[2.5]octane-7-carboxamide and (S)-4-(5-(5-fluoro-2-methoxypyridin-4-yl)-1H-pyrazole-3-carbonyl)-N—(((R)-3-(trifluoromethyl)-5,6-dihydro-8H-[1,2,4]triazolo[3,4-c][1,4]oxazin-6-yl)methyl)-4-azaspiro[2.5]octane-7-carboxamide [Example 357] | 45.1 |  | 2190 |  |  |
| COc1cc(-c2cc(C(=O)N3[C@@H]4CC[C@H]3C[C@H](C(=O)NCc3ccc5c(c3)c(F)nn5C)C4)n[nH]2)c(F)cn1 [Example 277, (1R,3s,5S)—N-((3-fluoro-1-methyl-1H-indazol-5-yl)methyl)-8-(5-(5-fluoro-2-methoxypyridin-4-yl)-1H-pyrazole-3-carbonyl)-8-azabicyclo[3.2.1]octane-3-carboxamide] | 3.3 | 29 |  |  |  |
| COc1cc(-c2cc(C(=O)N3CCC(NC(=O)C4CCC(O)(C(F)(F)F)CC4)CC34CC4)n[nH]2)c(F)cn1 (single isomer, unassigned) [Example 347-A] | 81.6 |  | 396 |  |  |
| COc1cc(-c2cc(C(=O)N3CCC(NC(=O)C4CCC(O)(C(F)(F)F)CC4)CC34CC4)n[nH]2)c(F)cn1 (single isomer, unassigned) [Example 347-C] | 5080 |  | > 10000 |  |  |
| COc1cc(-c2cc(C(=O)N3[C@@H]4CC[C@H]3C[C@H](C(=O)NCc3ccc5[nH]nc(F)c5c3)C4)n[nH]2)c(F)cn1 [Example 258, (1R,3S,5S)—N-[(3-fluoro-1H-indazol-5-yl)methyl]-8-[5-(5-fluoro-2-methoxypyridin-4-yl)-1H-pyrazole-3-carbonyl]-8-azabicyclo[3.2.1]octane-3-carboxamide] | 17 | 20 |  |  |  |
| Cc1cc(-c2cc(C(=O)N3[C@@H]4CC[C@H]3C[C@H](C(=O)N[C@H]3CC[C@@](O)(C(F)(F)F)CC3)C4)n[nH]2)ncn1 [Example 279, (1R,3s,5S)—N-((1r,4R)-4-hydroxy-4-(trifluoromethyl)cyclohexyl)-8-(5-(6-methylpyrimidin-4-yl)-1H-pyrazole-3-carbonyl)-8-azabicyclo[3.2.1]octane-3-carboxamide] | 24.6 | 290 |  |  |  |
